What was measured:
subjects with MDD [1] = test: HAM-A6 total score (anxiety), same study; type: in vivo, human; details: Treatment Week 6
Text: The secondary objectives are: • i. […] To investigate the effect of aticaprant versus placebo on depression related anhedonia as assessed by the SHAPS. • iv. To investigate the effect of aticaprant on symptoms of depression using the Clinical Global Impression-Severity (CGI-S), the patient reported Symptoms of Major Depressive Disorder Scale (SMDDS) and the self-assessment of treatment experience (SATE). • V. To investigate the effect of aticaprant on symptoms of anxiety using the HAM-A and on core symptoms of anxiety using the HAM-A6 subscale. • vi. To assess the plasma PK of aticaprant in subjects with MDD and explore its relationship with efficacy and safety parameters.
• (i) Depression: Montgomery-Åsberg Depression Rating Scale (MADRS), Clinical Global Impression-Severity (CGI-S), Symptoms of Major Depressive Disorder Scale (SMDDS), and Self-assessment of treatment experience (SATE) • (ii) Anhedonia: Snaith-Hamilton Pleasure Scale (SHAPS) • (iii) Anxiety: Structured Interview Guide for the Hamilton Anxiety scale (SIGH-A) and HAM-A6 • (iv) Effects on Cognition: The Cognitive and Physical Functioning Questionnaire (CPFQ) • (v) Safety assessments

subjects with MDD [2] = test: Treatment-emergent adverse events, full safety analysis set; type: in vivo, human
[3] = Body weight by treatment group; type: in vivo, human
Text: Treatment with crystalline Form I of aticaprant, crystalline Form II of aticaprant, crystalline Form III of aticaprant, or amorphous aticaprant as described herein has several advantages over the treatments in the art. […] As used herein, the term “weight gain” refers to an increase in the weight of patient, relative to the weight of the patient before taking crystalline Form I of aticaprant, crystalline Form II of aticaprant, crystalline Form III of aticaprant, or amorphous aticaprant or the weight of the patient that is assessed at the time of the initial administration of the crystalline Form I of aticaprant, crystalline Form II of aticaprant, crystalline Form III of aticaprant, or amorphous aticaprant. In certain embodiments, the patient may actually see a decrease in overall weight, relative to the weight of the patient before taking crystalline Form I of aticaprant, crystalline Form II of aticaprant, crystalline Form III of aticaprant, or amorphous aticaprant.
At the lead-in baseline timepoint, the mean weight for subjects in the placebo group was 76.17 kg compared to 78.66 in the aticaprant group. After 6 weeks in the double-blind treatment phase, the mean weight in the placebo group was 75.75 kg compared to 78.57 kg in the aticaprant group. […] This is unexpected because other adjunctive treatments for MDD result in a mean weight increase. See, Thase M, et al. J Clin Psych. 2015: 76 (9), 1224-1231; Thase, J Clin Psych. 2015, 76 (9): 1232-1240; El Khalili, Int J Neuropsychopharmacol. 2010, 13, 917-932; Marcus, J. Clin. Psychopharmacol. […] Nashville, Tenn, ACNP, 2008; Earley, American College of Neuropsychopharmacology, 2007, Annual Meeting Abstracts (Boca Raton, Fla, Dec. 9-13, 2007). Nashville, TN, ACNP, 2007). See, Table 65.

subjects with MDD [4] = test: MADRS total score, adjunctive aticaprant vs placebo in MDD (Example 8); details: for MADRS Total Score: Mean Change from Baseline (SD): aticaprant 10 mg adjunctive to SSRI/SNRI; for MADRS: LSMeans difference estimate, supplementary MMRM analysis (COVID-19 impact): data collected prior to 15 Mar. 2020
[5] = Treatment Period, Full Safety Analysis Set, aticaprant 10 mg (N = 85)
[6] = eITT Analysis Set, High anhedonia (SHAPS Total Score at Treatment Baseline >=38), Treatment Week 6
[7] = fITT Analysis Set, High anhedonia (SHAPS Total Score at Treatment Baseline >=38), Treatment Week 6

For Cc1cc(C)cc(C2CCCN2Cc2ccc(Oc3ccc(C(N)=O)cc3F)cc2)c1 (stereo not shown) [aticaprant, 3-fluoro-4-4-2-(3,5-dimethylphenyl) pyrrolidin-1-yl-methylphenoxybenzamide], the “HAM-A6 score, aticaprant treated patients vs. placebo (in words)” value (subjects with MDD [1]) was “greater improvement”, the “Change from Treatment Baseline in HAM-A6 Total Score: Arithmetic Mean (SD)” value (subjects with MDD [1]; aticaprant 10 mg, 59 subjects analyzed) was −2.73 ± 2.651 scores on a scale and the “Subjects with 1 or more serious TEAE” value (subjects with MDD [2]; [5]) was 0 n. The “Subjects with TEAE leading to death” value (subjects with MDD [2]; [5]) was 0 n, the “TEAE of Special Interest: Abdominal Pain Upper” value (subjects with MDD [2]; [5]) was 0 n and the “patients who experienced acute cholecystitis” value (subjects with MDD [2]; treatment period) was 0 patients. The “subjects who experienced TEAEs of special interest” value (subjects with MDD [2]; treatment period, 13/85) was 15.3%, the “subjects who discontinued due to treatment-emergent adverse events” value (subjects with MDD [2]; treatment period, due to diarrhea, nausea, vomiting and headache) was 1 subject and the “subjects with TEAE diarrhea” value (subjects with MDD [2]; treatment period, full safety analysis set, 7/85) was 8.2%. The “subjects with TEAE headache” value (subjects with MDD [2]; treatment period, full safety analysis set, 10/85) was 11.8%, the “subjects who experienced at least one TEAE” value (subjects with MDD [2]; treatment period, full safety analysis set, 40/85) was 47.1% and the “Mean weight, mean (SE)” value ([3]; Lead-in Baseline, n = 85) was 78.66 (1.65) kg. For the same molecule, the “Mean weight, mean (SE)” value ([3]; Screening, n = 85) was 78.42 (1.65) kg, the “Mean weight, mean (SE)” value ([3]; Withdrawal Baseline (after 6 weeks double-blind treatment), n = 85) was 78.57 (1.71) kg and the “Mean weight Relative % Change” value ([3]; Withdrawal vs Lead-in, n = 85) was −0.11%. The mean weight ([3]; after 6 weeks in the double-blind treatment phase, lead-in baseline 78.66) was 78.57 kg, the “weight over the 6-week double blind treatment period (in words)” value ([3]; in vivo) was “remained relatively stable” and the “Mean weight Absolute Change (Withdrawal-Lead-in)” value ([3]; n = 85) was -0.09 kg. For the same molecule, the “MADRS Total Score Effect size” value (subjects with MDD [4]; [6]) was −0.38, the “MADRS Total Score Mean Change to Placebo (SD pooled)” value (subjects with MDD [4]; [6]) was −3.4 (8.98) and the “MADRS Total Score Effect size” value (subjects with MDD [4]; eITT Analysis Set, Low anhedonia (SHAPS Total Score at Treatment Baseline >=20 and <38), Treatment Week 6) was −0.11. The “MADRS Total Score: Mean Change from Baseline (SD)” value (subjects with MDD [4]; eITT, Treatment Week 1) was −3.3, the “MADRS Total Score: Mean Change from Baseline (SD)” value (subjects with MDD [4]; eITT, Treatment Week 3) was −5.7 and the “MADRS Total Score: Mean Change to Placebo (SD pooled)” value (subjects with MDD [4]; eITT, Treatment Week 4) was −0.9 (7.00). For the same molecule, the “MADRS Total Score: Mean Change from Baseline (SD)” value (subjects with MDD [4]; eITT, Treatment Week 4) was −7.3, the “MADRS Total Score: Mean Change from Baseline (SD)” value (subjects with MDD [4]; eITT, Treatment Week 5) was −8.4 and the “MADRS Total Score: Mean Change from Baseline (SD)” value (subjects with MDD [4]; eITT, Treatment Week 6) was −10.2 (8.44). For the same molecule, the “MADRS: LSMeans difference estimate, supplementary MMRM analysis (COVID-19 impact)” value (subjects with MDD [4]; eITT) was −3.0, the “MADRS Total Score Effect size” value (subjects with MDD [4]; [7]) was −0.51 and the “MADRS Total Score Mean Change to Placebo (SD pooled)” value (subjects with MDD [4]; [7]) was −4.6 (9.03). The “MADRS Total Score Effect size” value (subjects with MDD [4]; fITT Analysis Set, Low anhedonia (SHAPS Total Score at Treatment Baseline >=20 and <38), Treatment Week 6) was −0.29, the “MADRS Total Score Change from Baseline LSMean Difference (SE) Treatment-Placebo” value (subjects with MDD [4]; fITT Analysis Set, Treatment Week 1, MMRM) was −1.6 (1.03) and the “MADRS Total Score Change from Baseline LSMean Difference (SE) Treatment-Placebo” value (subjects with MDD [4]; fITT Analysis Set, Treatment Week 3, MMRM) was −1.9 (1.04). The “MADRS Total Score Change from Baseline LSMean Difference (SE) Treatment-Placebo” value (subjects with MDD [4]; fITT Analysis Set, Treatment Week 4, MMRM) was −2.5 (1.04), the “MADRS Total Score Change from Baseline LSMean Difference (SE) Treatment-Placebo” value (subjects with MDD [4]; fITT Analysis Set, Treatment Week 5, MMRM) was −2.4 (1.05) and the “MADRS Total Score Change from Baseline LSMean Difference (SE) Treatment-Placebo” value (subjects with MDD [4]; fITT Analysis Set, Treatment Week 6, MMRM) was −3.1 (1.05). The “MADRS Total Score: Mean Change to Placebo (SD pooled)” value (subjects with MDD [4]; fITT, Treatment Week 4) was −2.3 (7.02), the “MADRS total score: mean change from treatment baseline (SD)” value (subjects with MDD [4]; fITT, Treatment Week 6) was −9.7 (8.02) and the “MADRS Total Score: Least Squares Mean Difference aticaprant vs placebo” value (subjects with MDD [4]; fITT, Treatment Week 6, MMRM) was −3.1. The “MADRS: LSMeans difference estimate, supplementary MMRM analysis (COVID-19 impact)” value (subjects with MDD [4]; fITT) was −3.4.

From US12171743B2, “Forms of aticaprant” (Janssen Pharmaceuticals, Inc., priority 2022, dated 2024)
